# Results as given in patent US10927067B2, “Organic crystalline salt of haloacetic acid” (priority 2016, dated 2021).
# Tests used:
# MCF7 cells = test: zebrafish xenotransplantation tumor model (zebrafish model of hepatocarcinoma), oral dosing with feed for 14 days; format: in vivo
# Procedure: The study was carried out in group sizes of 6 adult fish. Fish were induced with tumor through xenotransplantation of log phase cells. Groups were treated with compounds through oral dosing and treated groups were compared to vehicle treated, to quantify activity against tumor.
# Fishes were anesthetized using cold water of 15° C. and 3 ul of 1×10^6 log phase MCF7 cells were injected into the peritoneum to induce tumor. Fish were transferred to housing tanks and maintained for 21 days until tumor reached maximum growth phase.
# The stock compound is prepared by dissolving appropriate amount of compound in 1 ml of Phosphate Buffered Saline (PBS—8 g of NaCl, 0.2 g of KCl, 1.44 g of Na2HPO4 and 0.24 g of KH2PO4 is made to 1 litre and pH adjusted to 7.4.) containing 20% DMSO and 30% fish feed grade coconut oil and stored at 4° C. until use.
# Fishes were dosed by mixing the compound with feed for 14 days. A per day dosing weight of compound was dissolved in 3 ul of compound dissolving medium and added to a pellet. The pellets were dried at 70 degrees to remove moisture prior to adding compound and post addition and absorption of compound the pellets were transferred to 4° C.
# Statistical comparisons were made using GraphPad. Student's t test with a 95% confidence interval was performed using a two-way ANOVA at an alpha=0.05 (95% confidence interval). Significance is denoted with asterisks: ns not significant, *P<0.05, **P<0.01, ***P<0.001, ****P<0.0001.
# [1] = crystals from 95% ethanol, Example 3
# Procedure: Mixture of dichloroacetic acid (V) (1.28 g, 1.2894 mmol) and tromethamine (DI) (1.2 g) are dissolved in 10 ml of 95% ethanol.
# [2] = DSC, FIG. 5
# Procedure: DSC measurements were carried out using STA 6000 (Simultaneous Thermal Analyzer TG with DSC/DTA).
# TGA measurements were carried out using STA 6000 (Simultaneous Thermal Analyzer TG with DSC/DTA).
# [3] = 5 mM concentration, 14 days treatment, FIG. 8
molecule,measurement,setting,value
"O=C([O-])C(Cl)Cl.[Na+] [Formula (VI), sodium dichloroacetate, reference compound]",mortality,"MCF7 cells; 1 mM concentration, FIG. 7",70%
same,relative neovascularization reversal,"MCF7 cells; 1 mM concentration, FIG. 7",60%
same,tumor reversal,"MCF7 cells; 1 mM concentration, FIG. 7",40%
same,mortality,MCF7 cells; [3],90%
same,neovascularization reversal,"MCF7 cells; 5 mM concentration, FIG. 8",70%
same,relative tumor reversal,"MCF7 cells; 5 mM concentration, FIG. 8",50%
dichloroacetate tromethamine [Formula (VII)],water solubility,[1],water soluble
same,mortality,"MCF7 cells; 1 mM concentration, FIG. 7",No mortality
same,relative neovascularization reversal,"MCF7 cells; 1 mM concentration, FIG. 7",≤ 90%
same,tumor reversal,"MCF7 cells; 1 mM concentration, FIG. 7",≤ 60%
same,mortality,MCF7 cells; [3],No mortality
same,neovascularization reversal,"MCF7 cells; 5 mM concentration, FIG. 8",complete
same,relative tumor reversal,"MCF7 cells; 5 mM concentration, FIG. 8",up to 90%
same,thermally stable upto,[2],≤ 150 °C
